Where two headings read alike, the source gives them in different places.
What was measured:
[1] = system: RNA and DNA viruses including influenza A and hepatitis C viruses; conditions: cited from earlier work
[2] = system: rotavirus gastroenteritis, norovirus gastroenteritis and chronic hepatitis C; conditions: clinical trials; cited from earlier work
CD14+ cells (monocytes) = format: cell-based, human
[3] = system: Type I interferon signalling pathway; experiment: Type I interferon pathway Real-time PCR array (84 genes) in PBMC; format: cell-based, human
CD4+ T cells = experiment: T helper functions: IFNγ- and IL2-secreting CD4+ T cells; format: cell-based, human; conditions: for IFN-γ production by CD4+ T cells: 0.5 μg/ml
CD8+ T cells = experiment: CTL activity: perforin-, granzyme- and Fas-expressing CD8+ T cells; format: cell-based, human; conditions: for percentage of Fas-expressing CD8+ T cells: 20 and 40 μg/ml
[4] = system: Toll-Like Receptor signalling pathway; experiment: TLR pathway Real-time PCR array (84 genes) in PBMC; format: cell-based, human; conditions: 3 hours
[5] = humans, cited from earlier work
[6] = all five doses, unstimulated and flu-stimulated
[7] = flu-stimulated PBMC, 3 hours, 1 μg/ml
[8] = flu-stimulated PBMC, all doses tested
[9] = PMBCs, TIZ 0.5, 1.0 and 10 mg/ml, FIG. 3A
[10] = after oral nitazoxanide or nitazoxanide plus tizoxanide

CC(=O)Oc1ccccc1C(=O)Nc1ncc([N+](=O)[O-])s1 [Nitazoxanide, 2-(acetolyloxy)-N-(5-nitro-2-thiazolyl) benzamide]
replication of RNA and DNA viruses including influenza A and hepatitis C viruses [1]: inhibit replication | effectiveness in treating chronic hepatitis C [2]: effective | effectiveness in treating norovirus gastroenteritis [2]: effective | effectiveness in treating rotavirus gastroenteritis [2]: effective

O=C(Nc1ncc(Cl)s1)c1ccccc1O [RM-4848, N-(5-chlorothiazol-2-yl)-2-hydroxybenzamide]
TLR3-expressing CD14+ cells (CD14+ cells (monocytes); [6]): no effect | TLR8-expressing CD14+ cells (CD14+ cells (monocytes); [6]): no effect | percentage of TLR7-expressing CD14+ cells compared to control (CD14+ cells (monocytes); flu-antigenic stimulation, 1.0 μg/ml dose: p=0.001, 10 μg/ml dose: p=0.023): increase | percentage of TLR7-expressing CD14+ cells compared to control (CD14+ cells (monocytes); unstimulation condition): no significative differences | IFI27 mRNA fold increase ([3]; flu-stimulated PBMC, 10 μg/ml): > 4 fold | IFIT1 mRNA fold increase ([3]; flu-stimulated PBMC, 10 μg/ml): > 4 fold | IFNA2 mRNA fold increase [3, 7]: 6 fold | INFA1 mRNA fold increase [3, 7]: 10 fold | INFA4 mRNA fold increase [3, 7]: 10 fold | INFB1 mRNA fold increase [3, 7]: 8 fold | expression of the ISGs, IFI27 and IFIT1 ([3]; flu-stimulated PBMC, the three dose levels (1, 10, 20 μg/ml)): moderately up-regulated | Type I IFN inducible genes (CD70, COL16A1, HSPA1L, IFI27, IFIT1, NRG1 and SHB) ([3]; summary of Examples 4-8): upregulated | INFA1 mRNA fold decrease ([3]; un-stimulated PBMC, 20 μg/ml): 20 fold | INFA2 mRNA fold decrease ([3]; un-stimulated PBMC, 20 μg/ml): 15 fold | INFA4 mRNA fold decrease ([3]; un-stimulated PBMC, 20 μg/ml): 10 fold | INFB1 mRNA fold decrease ([3]; un-stimulated PBMC, 20 μg/ml): 15 fold | down-regulating effects on interferon genes ([3]; un-stimulated PBMC, two lower doses of 1 and 10 μg/ml): not seen | IFN-γ production by CD4+ T cells (CD4+ T cells; Flu-stimulated conditions, p=0.050): statistically significant upregulation | IFN-γ production by CD4+ T cells (CD4+ T cells; un-stimulated cells, p=0.035): statistically significant upregulation | percentage of Fas-expressing CD8+ T cells (CD8+ T cells; Flu-stimulated, p=0.003): statistically significantly increased | degranulation of CTLs, evaluated by reduction in perforin expression (CD8+ T cells; three higher dose levels tested): induced a degranulation | percentage of Fas-expressing CD8+ T cells (CD8+ T cells; un-stimulated, p=0.006): statistically significantly increased | INFA1 mRNA fold increase ([4]; flu-stimulated PBMC, 1 μg/ml): ~6 fold | INFB1 mRNA fold increase ([4]; flu-stimulated PBMC, 1 μg/ml): ~6 fold | TLR3 mRNA fold increase ([4]; flu-stimulated PBMC, 1 μg/ml): ~7 fold | TLR5 mRNA fold increase ([4]; flu-stimulated PBMC, 1 μg/ml): ~7 fold | TLR9 mRNA fold increase ([4]; flu-stimulated PBMC, 20 μg/ml): ~6 fold | TLR8 mRNA fold change [4, 8]: > 2 fold | TLR-7 mRNA fold change [4, 8]: > 2 fold | IL1A mRNA fold increase ([4]; un-stimulated PBMC, 20 μg/ml): ~5 fold | IL1B mRNA fold increase ([4]; un-stimulated PBMC, 20 μg/ml): ~5 fold | IL6 mRNA fold increase ([4]; un-stimulated PBMC, 20 μg/ml): ~6 fold

O=C(Nc1ncc([N+](=O)[O-])s1)c1ccccc1O [Tizoxanide]
TLR3- expression on monocytes (CD14+ cells (monocytes)): increase | TLR7- expression on monocytes (CD14+ cells (monocytes)): increase | TLR8- expression on monocytes (CD14+ cells (monocytes)): increase | IFNα-mRNA expression [3, 9]: increase | IFNβ-mRNA expression [3, 9]: increase | mRNA specific for type I IFN inducible genes (MXA, PRKCZ, ADAR, CXCL10, IRF1, PRKRA) ([3]; PMBCs, TIZ 0.5, 1.0 and 10 mg/ml, FIG. 3B): increase | mRNA specific for gene involved in MHC class I presentation (HLA-A, HLA-B, TAP1) ([3]; PMBCs, TIZ 0.5, 1.0 and 10 mg/ml, FIG. 3C): increase | replication of RNA and DNA viruses including influenza A and hepatitis C viruses [1]: inhibit replication | IFNγ-secreting CD4+ T cells (CD4+ T cells; PMBCs, TIZ 0.5, 1.0 and 10 mg/ml, unstimulated and flu-stimulated, FIG. 4A): increase | IL2-secreting CD4+ T cells (CD4+ T cells; PMBCs, TIZ 0.5, 1.0 and 10 mg/ml, unstimulated and flu-stimulated, FIG. 4B): increase | half-life in plasma [5, 10]: approximately 1.5 hours | urinary elimination half-life [5, 10]: 7.3 h | plasma protein binding [5]: bound to plasma proteins | CTL degranulation (CD8+ T cells; PMBCs, TIZ 0.5, 1.0 and 10 mg/ml, FIG. 5B): increase | Fas-expressing CD8+ T cells (CD8+ T cells; PMBCs, TIZ 0.5, 1.0 and 10 mg/ml, FIG. 5C): increase

From patent US10814612B2, “Use of thiazolide compounds for the prevention and treatment of viral diseases, cancer and diseases caused by intracellular infections” (priority 2011, dated 2020)
